This series is described as follows: activity coefficient (dimensionless); of the first substance listed, at infinite dilution; xn = mol fraction of the nth substance listed. Particulars: Liquid, Chromatography, x1 = 0.

± gives the expanded uncertainty stated by the source.

On to `COC(C)(C)C` [2-methoxy-2-methylpropane] + COCC[N+]1(C)CCOCC1.O=S(=O)([N-]S(=O)(=O)C(F)(F)F)C(F)(F)F, for which the activity coefficient is 3.53 ± 0.24 (318.15 K); 3.55 ± 0.24 (328.15 K); 3.57 ± 0.24 (338.15 K); 3.58 ± 0.24 (348.15 K); 3.59 ± 0.24 (358.15 K); 3.6 ± 0.25 (368.15 K).
`C1CCCCC1` [cyclohexane] + COCC[N+]1(C)CCOCC1.O=S(=O)([N-]S(=O)(=O)C(F)(F)F)C(F)(F)F: the activity coefficient came out at 18.8 ± 1.3 (318.15 K); 17 ± 1.2 (328.15 K); 15.6 ± 1.1 (338.15 K); 14.4 ± 1 (348.15 K); 13.3 ± 0.9 (358.15 K); 12.3 ± 0.8 (368.15 K).
As to `CCCCCC` [hexane] + COCC[N+]1(C)CCOCC1.O=S(=O)([N-]S(=O)(=O)C(F)(F)F)C(F)(F)F, the activity coefficient reads like this: (318.15 K) 36.1 ± 2.5; (328.15 K) 32.6 ± 2.2; (338.15 K) 29.8 ± 2; (348.15 K) 27.2 ± 1.9; (358.15 K) 25 ± 1.7; (368.15 K) 23.1 ± 1.6.
For `Cc1ccccc1` [toluene] + COCC[N+]1(C)CCOCC1.O=S(=O)([N-]S(=O)(=O)C(F)(F)F)C(F)(F)F, the activity coefficient is, setting by setting: (318.15 K) 2.01 ± 0.14; (328.15 K) 2.01 ± 0.14; (338.15 K) 2 ± 0.14; (348.15 K) 1.99 ± 0.14; (358.15 K) 1.98 ± 0.13; (368.15 K) 1.97 ± 0.13.
Consider `C=C(C)c1ccccc1` [(1-methylethenyl)benzene] + COCC[N+]1(C)CCOCC1.O=S(=O)([N-]S(=O)(=O)C(F)(F)F)C(F)(F)F, for which the activity coefficient (328.15 K) came to 2.74 ± 0.19; the activity coefficient (338.15 K) was 2.76 ± 0.19; the activity coefficient (348.15 K) was found to be 2.78 ± 0.19; the activity coefficient (358.15 K) was determined as 2.79 ± 0.19; the activity coefficient (368.15 K) turned out to be 2.81 ± 0.19.
For the compound `C1CCCC1` [cyclopentane] + COCC[N+]1(C)CCOCC1.O=S(=O)([N-]S(=O)(=O)C(F)(F)F)C(F)(F)F, the activity coefficient by setting is: (318.15 K) 12.2 ± 0.8; (328.15 K) 11.2 ± 0.8; (338.15 K) 10.4 ± 0.7; (348.15 K) 9.68 ± 0.66; (358.15 K) 9.1 ± 0.62; (368.15 K) 8.54 ± 0.58.
Regarding `CC1CCCCC1` [methylcyclohexane] + COCC[N+]1(C)CCOCC1.O=S(=O)([N-]S(=O)(=O)C(F)(F)F)C(F)(F)F, the activity coefficient by setting is: (318.15 K) 27.6 ± 1.9; (328.15 K) 24.8 ± 1.7; (338.15 K) 22.8 ± 1.6; (348.15 K) 20.9 ± 1.4; (358.15 K) 19.2 ± 1.3; (368.15 K) 17.7 ± 1.2.
Regarding `C=CCCCCCC` [oct-1-ene] + COCC[N+]1(C)CCOCC1.O=S(=O)([N-]S(=O)(=O)C(F)(F)F)C(F)(F)F, the activity coefficient (318.15 K) stood at 38.6 ± 2.6; the activity coefficient (328.15 K) stood at 34.9 ± 2.4; the activity coefficient (338.15 K) was determined as 32.5 ± 2.2; the activity coefficient (348.15 K) turned out to be 30.1 ± 2.1; the activity coefficient (358.15 K) stood at 27.5 ± 1.9; the activity coefficient (368.15 K) came to 25.9 ± 1.8.
Consider `CC(=O)O` [acetic acid] + COCC[N+]1(C)CCOCC1.O=S(=O)([N-]S(=O)(=O)C(F)(F)F)C(F)(F)F, for which the activity coefficient was determined as 0.451 ± 0.036 (328.15 K); 0.456 ± 0.036 (338.15 K); 0.459 ± 0.036 (348.15 K); 0.465 ± 0.036 (358.15 K); 0.468 ± 0.037 (368.15 K).
Consider `c1ccsc1` [thiophene] + COCC[N+]1(C)CCOCC1.O=S(=O)([N-]S(=O)(=O)C(F)(F)F)C(F)(F)F, for which the activity coefficient (318.15 K) is 1.09 ± 0.07; the activity coefficient (328.15 K) was found to be 1.08 ± 0.07; the activity coefficient (338.15 K) stood at 1.08 ± 0.07; the activity coefficient (348.15 K) is 1.08 ± 0.07; the activity coefficient (358.15 K) is 1.08 ± 0.07; the activity coefficient (368.15 K) is 1.08 ± 0.07.
On to `C1COCCO1` [1,4-dioxane] + COCC[N+]1(C)CCOCC1.O=S(=O)([N-]S(=O)(=O)C(F)(F)F)C(F)(F)F, for which the activity coefficient runs as follows: (318.15 K) 0.57 ± 0.041; (328.15 K) 0.596 ± 0.042; (338.15 K) 0.615 ± 0.043; (348.15 K) 0.638 ± 0.044; (358.15 K) 0.653 ± 0.045; (368.15 K) 0.674 ± 0.046.
`Cc1ccccc1C` [1,2-dimethylbenzene] + COCC[N+]1(C)CCOCC1.O=S(=O)([N-]S(=O)(=O)C(F)(F)F)C(F)(F)F: the activity coefficient reads like this: (318.15 K) 2.75 ± 0.19; (328.15 K) 2.71 ± 0.18; (338.15 K) 2.68 ± 0.18; (348.15 K) 2.65 ± 0.18; (358.15 K) 2.61 ± 0.18; (368.15 K) 2.58 ± 0.18.
On to `CCCCO` [butan-1-ol] + COCC[N+]1(C)CCOCC1.O=S(=O)([N-]S(=O)(=O)C(F)(F)F)C(F)(F)F, for which the activity coefficient amounted to 3.31 ± 0.23 (318.15 K); 2.94 ± 0.2 (328.15 K); 2.66 ± 0.18 (338.15 K); 2.4 ± 0.16 (348.15 K); 2.18 ± 0.15 (358.15 K); 2.02 ± 0.14 (368.15 K).
As for `C=CCCCCCCCC` [1-decene] + COCC[N+]1(C)CCOCC1.O=S(=O)([N-]S(=O)(=O)C(F)(F)F)C(F)(F)F, the activity coefficient was determined as 87.8 ± 6 (318.15 K); 78.8 ± 5.4 (328.15 K); 72.1 ± 4.9 (338.15 K); 65.7 ± 4.5 (348.15 K); 59.4 ± 4.1 (358.15 K); 54.9 ± 3.8 (368.15 K).
On to `CCc1ccccc1` [ethylbenzene] + COCC[N+]1(C)CCOCC1.O=S(=O)([N-]S(=O)(=O)C(F)(F)F)C(F)(F)F, for which the activity coefficient by setting is: (318.15 K) 3.27 ± 0.22; (328.15 K) 3.21 ± 0.22; (338.15 K) 3.16 ± 0.22; (348.15 K) 3.1 ± 0.21; (358.15 K) 3.04 ± 0.21; (368.15 K) 2.99 ± 0.2.
As for `CCC(C)(C)C` [2,2-dimethylbutane] + COCC[N+]1(C)CCOCC1.O=S(=O)([N-]S(=O)(=O)C(F)(F)F)C(F)(F)F, the activity coefficient is, setting by setting: (318.15 K) 32.4 ± 2.2; (328.15 K) 28.4 ± 1.9; (338.15 K) 25.7 ± 1.8; (348.15 K) 23.2 ± 1.6; (358.15 K) 21.2 ± 1.4; (368.15 K) 19.5 ± 1.3.
Turning to `C=Cc1ccccc1` [styrene] + COCC[N+]1(C)CCOCC1.O=S(=O)([N-]S(=O)(=O)C(F)(F)F)C(F)(F)F, the activity coefficient runs as follows: (318.15 K) 1.77 ± 0.12; (328.15 K) 1.77 ± 0.12; (338.15 K) 1.76 ± 0.12; (348.15 K) 1.76 ± 0.12; (358.15 K) 1.76 ± 0.12; (368.15 K) 1.76 ± 0.12.
Turning to `C#CCCCCC` [1-heptyne] + COCC[N+]1(C)CCOCC1.O=S(=O)([N-]S(=O)(=O)C(F)(F)F)C(F)(F)F, the activity coefficient (318.15 K) was 7.44 ± 0.51; the activity coefficient (328.15 K) came to 7.24 ± 0.49; the activity coefficient (338.15 K) turned out to be 7.09 ± 0.48; the activity coefficient (348.15 K) was 6.94 ± 0.47; the activity coefficient (358.15 K) was 6.79 ± 0.46; the activity coefficient (368.15 K) was determined as 6.65 ± 0.45.
As to `O` [water] + COCC[N+]1(C)CCOCC1.O=S(=O)([N-]S(=O)(=O)C(F)(F)F)C(F)(F)F, the activity coefficient reads like this: (318.15 K) 2.49 ± 0.17; (328.15 K) 2.17 ± 0.15; (338.15 K) 1.94 ± 0.13; (348.15 K) 1.73 ± 0.12; (358.15 K) 1.55 ± 0.1; (368.15 K) 1.41 ± 0.09.
Turning to `CCC(=O)OC` [methyl propanoate] + COCC[N+]1(C)CCOCC1.O=S(=O)([N-]S(=O)(=O)C(F)(F)F)C(F)(F)F, the activity coefficient runs as follows: (318.15 K) 0.949 ± 0.06; (328.15 K) 0.966 ± 0.061; (338.15 K) 0.982 ± 0.062; (348.15 K) 0.998 ± 0.062; (358.15 K) 1.01 ± 0.06; (368.15 K) 1.03 ± 0.06.
As for `CCCOCCC` [dipropyl ether] + COCC[N+]1(C)CCOCC1.O=S(=O)([N-]S(=O)(=O)C(F)(F)F)C(F)(F)F, the activity coefficient came to 10.7 ± 0.7 (318.15 K); 10.3 ± 0.7 (328.15 K); 9.92 ± 0.68 (338.15 K); 9.56 ± 0.65 (348.15 K); 9.2 ± 0.63 (358.15 K); 8.97 ± 0.61 (368.15 K).
With `c1ccccc1` [benzene] + COCC[N+]1(C)CCOCC1.O=S(=O)([N-]S(=O)(=O)C(F)(F)F)C(F)(F)F, the activity coefficient was found to be 1.33 ± 0.09 (318.15 K); 1.32 ± 0.09 (328.15 K); 1.32 ± 0.09 (338.15 K); 1.32 ± 0.09 (348.15 K); 1.31 ± 0.09 (358.15 K); 1.31 ± 0.09 (368.15 K).
For the compound `C=CCCCCC` [1-heptene] + COCC[N+]1(C)CCOCC1.O=S(=O)([N-]S(=O)(=O)C(F)(F)F)C(F)(F)F, the activity coefficient (318.15 K) was 24.9 ± 1.7; the activity coefficient (328.15 K) worked out at 23 ± 1.6; the activity coefficient (338.15 K) stood at 21.7 ± 1.5; the activity coefficient (348.15 K) is 20.3 ± 1.4; the activity coefficient (358.15 K) is 19 ± 1.3; the activity coefficient (368.15 K) was 18.1 ± 1.2.
`C#CCCCCCC` [1-octyne] + COCC[N+]1(C)CCOCC1.O=S(=O)([N-]S(=O)(=O)C(F)(F)F)C(F)(F)F: the activity coefficient amounted to 11.4 ± 0.8 (318.15 K); 11 ± 0.8 (328.15 K); 10.6 ± 0.7 (338.15 K); 10.3 ± 0.7 (348.15 K); 9.93 ± 0.68 (358.15 K); 9.67 ± 0.66 (368.15 K).
For `CCC(C)(C)OC` [2-methoxy-2-methylbutane] + COCC[N+]1(C)CCOCC1.O=S(=O)([N-]S(=O)(=O)C(F)(F)F)C(F)(F)F, the activity coefficient runs as follows: (318.15 K) 5.55 ± 0.38; (328.15 K) 5.5 ± 0.37; (338.15 K) 5.43 ± 0.37; (348.15 K) 5.37 ± 0.37; (358.15 K) 5.32 ± 0.36; (368.15 K) 5.28 ± 0.36.

Source of the values: the NIST ThermoML archive (doi:10.1016/j.jct.2011.11.021).
